Here are results for 15 compounds from PubChem BioAssay AID2691 (Broad Institute, 2010).

SMILES strings stand for the structures. Converted amounts (≈) assume the structure as drawn. Results filed as inconclusive are left out. The source made the active and inactive calls.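 The calls were made as follows: active = dose-dependent viability drop with mean lowest dose clearly under solvent controls below the top tested dose; inconclusive = self-fluorescent without titration, or replicates split around top dose; inactive = no such drop up to the top dose.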 Some results are limits rather than exact numbers.

This assay relates to NIH 3T3 viability, Alamar Blue fluorescence, 3 days. In words: mammalian fibroblast cytotoxicity – cell-based, Alamar Blue fluorescence, MIC, cytotoxicity control for polyadenylation inhibitor project, dose response (AID 2691). (Alamar Blue is a resazurin reagent that responds to reducing activity.)
With `Cc1ccc(-c2nn3c(C)nnc3s2)cc1NC(=O)CSc1ccc(Cl)cc1`, the MIC was > 25 µM (inactive).
The figure for `Cc1ccc(Nc2c(-c3ccc(C)o3)nc3ncccn23)cc1` is > 25 µM (inactive); for `Nc1ncnc2c1ncn2C1OC(CO)CC1O` (stereo not given) it is > 25 µM (inactive); for `COc1cc(/C=C2\SC(=S)N(NC(=O)c3ccncc3)C2=O)ccc1O` it is > 25 µM (inactive).
With `N#CC1(C#N)C2=C(CCCC2)NC(c2ccccc2)C1(C#N)C#N` (stereo not given), the MIC was > 25 µM (inactive).
The figure for `CCN1/C(=C\C=C\c2sc3ccccc3[n+]2CC)Sc2ccccc21` is > 25 µM (inactive).
On to `N#C/C(=C/c1ccc([N+](=O)[O-])o1)c1nc2ccccc2[nH]1`, for which the MIC is 1.6 µM (≈ 0.448 µg/mL).
The figure for `O=C(Oc1c(-c2ccccc2)c(=O)n2c3c(cccc13)CC2)c1cccc([N+](=O)[O-])c1` is > 25 µM (inactive).
To `Cc1ccc(C(=O)c2no[n+]([O-])c2C(=O)c2ccc(C)cc2)cc1` belongs 1.6 µM (≈ 0.516 µg/mL).
For `Cc1ccc2nc(/C(C#N)=C/c3ccc([N+](=O)[O-])o3)[nH]c2c1`, the MIC is 0.8 µM (≈ 0.235 µg/mL).
As for `CCOc1cc(/C=C2\N=C(SC(C)C(N)=O)N(c3ccc(OC(F)F)cc3)C2=O)ccc1O` (stereo not given), the MIC is > 25 µM (inactive).
The figure for `COc1cc(/C=C2\SC(=S)N(NC(=O)c3cccnc3)C2=O)ccc1O` is > 25 µM (inactive); for `COc1cc(/C=C2/CC/C(=C/c3ccc(O)c(OC)c3)C2=O)ccc1O` it is > 25 µM (inactive).
To `CC(=O)c1ccc(Sc2ccccc2)c([N+](=O)[O-])c1` belongs > 25 µM (inactive).
With `O=C(COC(=O)Cc1ccc(S(=O)(=O)N2CCOCC2)s1)NCc1ccc(Cl)cc1`, the MIC was > 25 µM (inactive).
